Columns and labels:
[1] = test system: MDA-MB-231; assay: Antiproliferative activity against human MDA-MB-231 cells assessed as inhibition of cell growth at 20 uM incubated for 48 hrs by MTT assay; format: functional
[2] = test system: HCT-116; assay: Antiproliferative activity against human HCT-116 cells assessed as inhibition of cell growth at 20 uM incubated for 48 hrs by MTT assay; format: functional
[3] = test system: HeLa; assay: Antiproliferative activity against human HeLa cells assessed as inhibition of cell growth at 20 uM incubated for 48 hrs by MTT assay; format: functional
[4] = test system: A549; assay: Antiproliferative activity against human A549 cells assessed as inhibition of cell growth at 20 uM incubated for 48 hrs by MTT assay; format: functional
[5] = test system: A-375; assay: Antiproliferative activity against human A-375 cells assessed as inhibition of cell growth at 20 uM incubated for 48 hrs by MTT assay; format: functional
[6] = test system: MDA-MB-231; assay: Antiproliferative activity against human MDA-MB-231 cells assessed as inhibition of cell growth incubated for 48 hrs by MTT assay; format: functional, cell-based; details: MDA-MB-231, 48 h
[7] = test system: HeLa; assay: Antiproliferative activity against human HeLa cells assessed as inhibition of cell growth incubated for 48 hrs by MTT assay; format: functional, cell-based
[8] = test system: A549; assay: Antiproliferative activity against human A549 cells assessed as inhibition of cell growth incubated for 48 hrs by MTT assay; format: functional, cell-based; details: A549, 48 h
[9] = test system: A-375; assay: Antiproliferative activity against human A-375 cells assessed as inhibition of cell growth incubated for 48 hrs by MTT assay; format: functional, cell-based; details: A-375, 48 h
[10] = test system: HCT-116; assay: Potency index, ratio of olaparib IC50 to test compound IC50 for antiproliferative activity against human HCT-116 cells; format: functional
[11] = test system: L02; assay: Antiproliferative activity against human L02 cells assessed as inhibition of cell growth […] incubated for 48 hrs by MTT assay; format: functional, cell-based; details: L02, 48 h
[12] = biological target: Poly [ADP-ribose] polymerase 1 (Homo sapiens, UniProt P09874); assay: Inhibition of PARP1 (unknown origin) by ELISA
Sequence of Poly [ADP-ribose] polymerase 1 (P09874 whole entry): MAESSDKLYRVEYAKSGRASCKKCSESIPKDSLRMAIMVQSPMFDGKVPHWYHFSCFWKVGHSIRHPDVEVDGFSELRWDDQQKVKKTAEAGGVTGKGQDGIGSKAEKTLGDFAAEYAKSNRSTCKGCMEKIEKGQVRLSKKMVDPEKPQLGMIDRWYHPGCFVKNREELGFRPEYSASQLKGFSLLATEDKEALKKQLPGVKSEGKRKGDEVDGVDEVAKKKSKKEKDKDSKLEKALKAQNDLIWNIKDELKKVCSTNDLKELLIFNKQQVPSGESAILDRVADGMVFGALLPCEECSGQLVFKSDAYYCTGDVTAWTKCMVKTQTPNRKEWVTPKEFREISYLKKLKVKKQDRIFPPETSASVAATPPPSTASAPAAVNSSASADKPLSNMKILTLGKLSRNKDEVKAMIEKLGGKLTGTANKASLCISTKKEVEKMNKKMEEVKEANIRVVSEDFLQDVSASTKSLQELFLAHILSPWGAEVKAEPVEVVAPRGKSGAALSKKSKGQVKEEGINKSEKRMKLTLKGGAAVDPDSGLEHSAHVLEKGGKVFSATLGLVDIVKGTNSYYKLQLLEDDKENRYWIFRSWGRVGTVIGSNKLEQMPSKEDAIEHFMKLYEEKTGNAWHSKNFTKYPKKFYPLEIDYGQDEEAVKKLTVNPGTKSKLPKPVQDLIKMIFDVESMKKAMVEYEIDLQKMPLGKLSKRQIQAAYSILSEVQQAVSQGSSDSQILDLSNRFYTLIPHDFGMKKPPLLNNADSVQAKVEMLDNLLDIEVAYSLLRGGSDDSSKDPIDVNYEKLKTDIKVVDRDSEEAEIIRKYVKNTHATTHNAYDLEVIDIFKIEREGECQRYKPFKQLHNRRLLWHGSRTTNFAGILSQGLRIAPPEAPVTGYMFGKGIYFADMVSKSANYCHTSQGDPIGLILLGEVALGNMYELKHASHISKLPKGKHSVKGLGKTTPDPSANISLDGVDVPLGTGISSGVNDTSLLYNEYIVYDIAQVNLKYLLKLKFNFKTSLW

[13] = test system: HCT-116; assay: Inhibition of colony formation in human HCT-116 cells measured every 3 days for 14 days by crystal violet staining based assay; format: functional, cell-based; details: dose 1.88-15 µM, time 14.0 day
[14] = test system: HCT-116; assay: Inhibition of colony formation in human HCT-116 cells at 7.5 uM measured every 3 days for 14 days by crystal violet staining based assay; format: functional; details: HCT-116, 336 h, time 14 day
[15] = test system: HCT-116; assay: Inhibition of colony formation in human HCT-116 cells at 10 uM measured every 3 days for 14 days by crystal violet staining based assay; format: functional; details: HCT-116, 336 h, time 14 day
[16] = test system: HCT-116; assay: Inhibition of cell migration in human HCT-116 cells at 7.5 uM incubated for 24 hrs by wound healing assay (reference value: 32.0 %); format: functional
[17] = test system: HCT-116; assay: Inhibition of cell migration in human HCT-116 cells at 7.5 uM incubated for 48 hrs by wound healing assay (reference value: 42.8 %); format: functional
[18] = test system: HCT-116; assay: Inhibition of cell migration in human HCT-116 cells at 15 uM incubated for 24 hrs by wound healing assay (reference value: 32.0 %); format: functional
[19] = test system: HCT-116; assay: Inhibition of cell migration in human HCT-116 cells at 15 uM incubated for 48 hrs by wound healing assay (reference value: 42.8 %); format: functional
[20] = test system: HCT-116; assay: Induction of cell cycle arrest in human HCT-116 cells assessed as accumulation of cells at G2/M phase at 7.5 to 10 uM incubated for 48 hrs by propidium iodide staining based flow cytometry analysis (reference value: 27.84 %); format: functional; details: dose 7.5-10 µM
[21] = test system: HCT-116; assay: Induction of cell cycle arrest in human HCT-116 cells assessed as decrease in cells at G0/G1 phase at 7.5 to 10 uM incubated for 48 hrs by propidium iodide staining based flow cytometry analysis (reference value: 66.42 %); format: functional; parameters: scale not given: the % may be the effect or the level left; details: dose 7.5-10 µM
[22] = test system: HCT-116; assay: Induction of apoptosis in human HCT-116 cells assessed as viable cells at 3.75 uM incubated for 48 hrs by Annexin-V and PI staining based flow cytometry analysis (reference value: 98.60%); format: functional; details: read-out: Activity
[23] = test system: HCT-116; assay: Induction of apoptosis in human HCT-116 cells assessed as early apoptotic cells at 3.75 uM incubated for 48 hrs by Annexin-V and PI staining based flow cytometry analysis (reference value: 1.26%); format: functional
[24] = test system: HCT-116; assay: Induction of apoptosis in human HCT-116 cells assessed as late apoptotic cells at 3.75 uM incubated for 48 hrs by Annexin-V and PI staining based flow cytometry analysis (reference value: 0.06%); format: functional
[25] = test system: HCT-116; assay: Induction of apoptosis in human HCT-116 cells assessed as necrotic cells at 3.75 uM incubated for 48 hrs by Annexin-V and PI staining based flow cytometry analysis (reference value: 0.06%); format: functional
[26] = test system: HCT-116; assay: Induction of apoptosis in human HCT-116 cells assessed as viable cells at 7.5 uM incubated for 48 hrs by Annexin-V and PI staining based flow cytometry analysis (reference value: 98.60%); format: functional; details: read-out: Activity
[27] = test system: HCT-116; assay: Induction of apoptosis in human HCT-116 cells assessed as early apoptotic cells at 7.5 uM incubated for 48 hrs by Annexin-V and PI staining based flow cytometry analysis (reference value: 1.26%); format: functional
[28] = test system: HCT-116; assay: Induction of apoptosis in human HCT-116 cells assessed as late apoptotic cells at 7.5 uM incubated for 48 hrs by Annexin-V and PI staining based flow cytometry analysis (reference value: 0.06%); format: functional
[29] = test system: HCT-116; assay: Induction of apoptosis in human HCT-116 cells assessed as necrotic cells at 7.5 uM incubated for 48 hrs by Annexin-V and PI staining based flow cytometry analysis (reference value: 0.06%); format: functional
[30] = test system: HCT-116; assay: Induction of apoptosis in human HCT-116 cells assessed as viable cells at 15 uM incubated for 48 hrs by Annexin-V and PI staining based flow cytometry analysis (reference value: 98.60%); format: functional; details: read-out: Activity
[31] = test system: HCT-116; assay: Induction of apoptosis in human HCT-116 cells assessed as early apoptotic cells at 15 uM incubated for 48 hrs by Annexin-V and PI staining based flow cytometry analysis (reference value: 1.26%); format: functional
[32] = test system: HCT-116; assay: Induction of apoptosis in human HCT-116 cells assessed as late apoptotic cells at 15 uM incubated for 48 hrs by Annexin-V and PI staining based flow cytometry analysis (reference value: 0.06%); format: functional
[33] = test system: HCT-116; assay: Induction of apoptosis in human HCT-116 cells assessed as necrotic cells at 15 uM incubated for 48 hrs by Annexin-V and PI staining based flow cytometry analysis (reference value: 0.06%); format: functional

`NC(=O)c1ccccc1NCc1cccc(NC(=O)Nc2cccc(Br)c2)c1` was tested, and the inhibition at 20 µM [1] was 86.8%, the inhibition at 20 µM [2] was 91% and the inhibition at 20 µM [3] was 72.2%. It also gave an inhibition at 20 µM [4] of 78.8%, an inhibition at 20 µM [5] of 81.8% and an IC50 [6] of 13.7 µM. It also gave an IC50 [7] of 14.3 µM, an IC50 [8] of 12.4 µM and an IC50 [9] of 15.1 µM. For the same compound, the “Ratio IC50” value [10] was 7.87, the IC50 [11] was 100 µM and the IC50 [12] was 0.00517 µM. The inhibition [13] was “Dose-Dependent Effect”, the inhibition at 7.5 µM [14] was 100% and the inhibition at 10 µM [15] was 100%. For the same compound, the inhibition at 7.5 µM [16] was 21%, the inhibition at 7.5 µM [17] was 23.3% and the inhibition at 15 µM [18] was 14.7%. The inhibition at 15 µM [19] was 24.2%, the Activity [20] was 34.6% and the Activity [21] was 55.94%. It also gave a viability at 3.75 µM [22] of 89.8%, an Activity [23] of 9.81% and an Activity [24] of 0.29%. For the same compound, the Activity [25] was 0.1%, the viability at 7.5 µM [26] was 86.3% and the Activity [27] was 12.93%. The Activity [28] was 0.7%, the Activity [29] was 0.1% and the viability at 15 µM [30] was 54.5%. The Activity [31] was 42.85%, the Activity [32] was 2.2% and the Activity [33] was 0.43%.

Source: ChEMBL document CHEMBL5352439, “Design, synthesis, biological evaluation and molecular docking study of novel urea-based benzamide derivatives as potent poly(ADP-ribose) polymerase-1 (PARP-1) inhibitors” (Eur J Med Chem, 2022)
